{"source": "patent US11401303B2", "about": "“Synthetic peptide BRAP and application in preparation of anti-inflammatory drug for COVID-19 thereof” (TAIAN CITY QIHANG BIOTECHNOLOGY CO., priority 2020, dated 2022)", "key": {"[1]": {"system": "LPS-induced acute lung injury", "experiment": "LPS-induced acute lung injury in mice, HE pathological examination of lung tissues", "format": "in vivo, Balb/C mice", "conditions": "16 mg/kgBW via tail vein once/day; LPS 5 mg/kgBW i.p.", "protocol": "1. Grade-SPF male Balb/C mice, body weight: 20±2 g, and n=48\n3. Grouping and treatment: mice were randomly divided into 8 groups (A-H), 6 pcs./group;\n3-1: 3 different treatments were given for 3 consecutive days respectively before modeling:\nA. normal control group: normal saline was injected via the tail vein for once/day;\nB. LPS model group: normal saline was injected via the tail vein for once/day;\nC. model sp2 administration group: sp2 (16 mg/kgBW) was injected via the tail vein for once/day;\nD. model high-dose brap administration group: brap (16 mg/kgBW) was injected via the tail vein for once/day;\nE. model medium-dose brap administration group: brap (8 mg/kgBW) was injected via the tail vein for once/day;\nF. model low-dose brap administration group: brap (4 mg/kgBW) was injected via the tail vein for once/day;\nG. model brap intranasal administration group: brap (3 mM) was administered nasal administration on both sides, 15 μl/each side; once a day;\nH. model dexamethasone administration group (a positive control group): dexamethasone, DEX, 5 mg/kg was injected intraperitoneally for once a day.\nAnimals from groups A-H were continuously administered the above treatments for 30 min respectively, then group A was intraperitoneally injected isopyknic normal saline, and other groups were intraperitoneally injected LPS 5 mg/kgBW.\n1. Tissue section and extending\n2. Tissues were dewaxed and hydrated.\n3. Tissues were dyed with a hematoxylin stain for 5-20 min (adjusted according to different tissues and experimental requirements), and washed by tap water.\n4. Then, tissues were differentiated by a differentiation solution for 30 s.\n5. Tissues were soaked by tap water for 15 min or warm water (about 50° C.) for 5 min.\n6. Tissues were put in an Eosin stain for 2 min (adjusted according to different tissues and experimental requirements), and washed by tap water.\n7. Then, the tissues were soaked by tap water for 5 min.\n8. Dehydration by gradient alcohol: Tissues were dehydrated by 95%, 100% I, and 100% II for 1 min each;\n9. Transparency by xylene: tissues were subjected to xylene I and II for 10 min.\n10. Neutral balsam mounting.\n11. Then, it was put and dried in an oven at 60° C., and observed under microscope."}, "[2]": {"system": "OVA-induced allergic rhinitis", "experiment": "Rat allergic nasal inflammation (OVA-induced allergic rhinitis), intranasal administration", "format": "in vivo, SD rat", "conditions": "all dose groups of the peptide; bilateral nasal cavities 50 μL/side, 4 weeks, continued OVA provocation", "protocol": "SD rat modeling: two stages of intraperitoneal injection for sensitization and intranasal dripping for stimulation. Ovalbumin was injected intraperitoneally, and 1 mg ovalbumin (V-class Sigma, USA) was dissolved in 1 ml normal saline, and 30 mg of aluminum hydroxide was added as an immunologic adjuvant. Each rat was intraperitoneally injected 1 ml ovalbumin suspension prepared above with 1 ml/time every other day and for 7 times in total; and stimulated intranasally with ovalbumin on the 15th day; 20 mg ovalbumin (V-class Sigma, USA) were dissolved in 1 ml normal saline to be prepared into a 2% solution; and the 2% ovalbumin solution was used for stimulation by nasal dripping; and 50 ul nasal drips were administered in each of the nasal cavities of each rat for 7 consecutive days.\nBlank control group: 30 mg of aluminum hydroxide+1 ml of normal saline were mixed evenly, and then injected intraperitoneally; and the method was the same as the above.\nNormal saline was dripped into nasal cavities on the 15th day.\nAfter the final nasal dripping was performed, each rat was observed and evaluated according to a scoring table: Sneezing, nose scratching, gasping and nasal secretions\n1. Administration way: a drug was administered with a micro-sampling gun, bilateral nasal cavities of a rat were administered with 50 μL/side, after being administered for 20 min, a 2% ovalbumin solution was administered to bilateral nasal cavities of the rat; 50 μL/side nasal dripping was administered for provocation; the above treatment was performed for 4 consecutive weeks to observe the pharmacodynamic effect.\nHigh-dose synthetic peptide brap: a synthetic peptide brap freeze-dried powder (5 mg/bottle) was taken, and 1.63 ml sterile saline solution was added for dissolving;\nmedium-dose synthetic peptide brap: a synthetic peptide brap freeze-dried powder (5 mg/bottle) was taken, and 4.89 ml sterile saline solution was added for dissolving;\nlow-dose synthetic peptide brap: a synthetic peptide brap freeze-dried powder (5 mg/bottle) was taken, and 14.67 ml sterile saline solution was added for dissolving;"}}, "data": [{"substance": "sp2: control synthetic peptide with an amino acid sequence as shown in SEQ ID No: 2 (RVLNGPEEEAAAPAE) [reference compound]", "values": [{"measurement": "Lung tissue pathology (HE)", "setting": "[1]", "result": "inflammatory cell infiltration is obvious"}, {"measurement": "Scoring change before and after treatment", "setting": "[2]", "result": "increases"}]}]}
